Values quoted from earlier work as cited in US20160279255A1, “THERAPEUTIC COMPOSITIONS INCLUDING MODULATORS OF deltaPKC AND/OR epsilonPKC, AND USES THEREOF” (priority 2014, published 2016).

System: several mammalian cell types
Conditions: energy-independent manner; cited from earlier work

In the case of 2′,6′-Dmt-D-Arg-Phe-Lys-NH2, the “penetration of the plasma membrane” value is given as “readily penetrates the plasma membrane”.
